Measured values from PubChem BioAssay (NCI).
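1) Cells in 96-well plates. 2) Compound, 48 h, 5 concentrations. 3) Linear interpolation between surrounding doses. 4) Unreached endpoint = highest concentration. TGI: total growth inhibition.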

What was measured:
Assay in all cases: growth of human tumour cells (NCI), 48 h
OVCAR-8 ovarian = system: OVCAR-8 ovarian
RPMI-8226 leukemia = system: RPMI-8226 leukemia
T-47D breast = system: T-47D breast
A549 NSCLC = system: A549 NSCLC
MALME-3M melanoma = system: MALME-3M melanoma
OVCAR-5 ovarian = system: OVCAR-5 ovarian
HCT-15 colon = system: HCT-15 colon
IGROV1 ovarian = system: IGROV1 ovarian
LOX IMVI melanoma = system: LOX IMVI melanoma
SF-295 CNS = system: SF-295 CNS
MDA-MB-231 breast = system: MDA-MB-231 breast
OVCAR-4 ovarian = system: OVCAR-4 ovarian
SW-620 colon = system: SW-620 colon
MDA-N = system: MDA-N
CCRF-CEM leukemia = system: CCRF-CEM leukemia
RXF 393 renal = system: RXF 393 renal
HS 578T breast = system: HS 578T breast
SF-539 CNS = system: SF-539 CNS
HOP-62 NSCLC = system: HOP-62 NSCLC
UACC-62 melanoma = system: UACC-62 melanoma
COLO 205 colon = system: COLO 205 colon
NCI-H23 lung = system: NCI-H23 lung
SNB-19 CNS = system: SNB-19 CNS
M14 melanoma = system: M14 melanoma
UO-31 renal = system: UO-31 renal
PC-3 prostate = system: PC-3 prostate
CAKI-1 renal = system: CAKI-1 renal
BT-549 breast = system: BT-549 breast
HCT-116 colon = system: HCT-116 colon
SK-MEL-28 melanoma = system: SK-MEL-28 melanoma
SK-OV-3 ovarian = system: SK-OV-3 ovarian
NCI-H460 lung = system: NCI-H460 lung
MOLT-4 leukemia = system: MOLT-4 leukemia
U251 CNS = system: U251 CNS
KM12 colon = system: KM12 colon
HCC-2998 colon = system: HCC-2998 colon
SR leukemia = system: SR leukemia
K-562 leukemia = system: K-562 leukemia
SN12C renal = system: SN12C renal
786-0 renal = system: 786-0 renal
UACC-257 melanoma = system: UACC-257 melanoma
DU-145 prostate = system: DU-145 prostate
NCI-H522 lung = system: NCI-H522 lung
NCI/ADR-RES ovarian = system: NCI/ADR-RES ovarian
TK-10 renal = system: TK-10 renal
MCF7 breast = system: MCF7 breast
EKVX NSCLC = system: EKVX NSCLC
HT29 colon = system: HT29 colon
MDA-MB-435 = system: MDA-MB-435
A498 renal = system: A498 renal
SK-MEL-2 melanoma = system: SK-MEL-2 melanoma
SK-MEL-5 melanoma = system: SK-MEL-5 melanoma
OVCAR-3 ovarian = system: OVCAR-3 ovarian
SF-268 CNS = system: SF-268 CNS
ACHN renal = system: ACHN renal
HOP-92 NSCLC = system: HOP-92 NSCLC
NCI-H226 lung = system: NCI-H226 lung
SNB-75 CNS = system: SNB-75 CNS

Clc1ccc(-c2nc(-c3ccc(Cl)cc3)[s+]s2)cc1
TGI (OVCAR-8 ovarian): > 100 µM | TGI (RPMI-8226 leukemia): 90.6 µM | TGI (T-47D breast): > 100 µM | TGI (A549 NSCLC): > 100 µM | TGI (MALME-3M melanoma): 77.7 µM | TGI (OVCAR-5 ovarian): > 100 µM | TGI (HCT-15 colon): > 100 µM | TGI (IGROV1 ovarian): > 100 µM | TGI (LOX IMVI melanoma): > 100 µM | TGI (SF-295 CNS): > 100 µM | TGI (MDA-MB-231 breast): > 100 µM | TGI (OVCAR-4 ovarian): 98.9 µM | TGI (SW-620 colon): > 100 µM | TGI (MDA-N): > 100 µM | TGI (CCRF-CEM leukemia): 98.6 µM | TGI (RXF 393 renal): > 100 µM | TGI (HS 578T breast): > 100 µM | TGI (SF-539 CNS): > 100 µM | TGI (HOP-62 NSCLC): > 100 µM | TGI (UACC-62 melanoma): > 100 µM | TGI (COLO 205 colon): > 100 µM | TGI (NCI-H23 lung): > 100 µM | TGI (SNB-19 CNS): > 100 µM | TGI (M14 melanoma): > 100 µM | TGI (UO-31 renal): > 100 µM | TGI (PC-3 prostate): > 100 µM | TGI (CAKI-1 renal): > 100 µM | TGI (BT-549 breast): > 100 µM | TGI (HCT-116 colon): > 100 µM | TGI (SK-MEL-28 melanoma): > 100 µM | TGI (SK-OV-3 ovarian): > 100 µM | TGI (NCI-H460 lung): > 100 µM | TGI (MOLT-4 leukemia): > 100 µM | TGI (U251 CNS): > 100 µM | TGI (KM12 colon): > 100 µM | TGI (HCC-2998 colon): > 100 µM | TGI (SR leukemia): 94.2 µM | TGI (K-562 leukemia): > 100 µM | TGI (SN12C renal): > 100 µM | TGI (786-0 renal): > 100 µM | TGI (UACC-257 melanoma): > 100 µM | TGI (DU-145 prostate): > 100 µM | TGI (NCI-H522 lung): > 100 µM | TGI (NCI/ADR-RES ovarian): > 100 µM | TGI (TK-10 renal): 86.5 µM | TGI (MCF7 breast): > 100 µM | TGI (EKVX NSCLC): > 100 µM | TGI (HT29 colon): > 100 µM | TGI (MDA-MB-435): > 100 µM | TGI (A498 renal): > 100 µM | TGI (SK-MEL-2 melanoma): > 100 µM | TGI (SK-MEL-5 melanoma): > 100 µM | TGI (OVCAR-3 ovarian): > 100 µM | TGI (SF-268 CNS): > 100 µM | TGI (ACHN renal): > 100 µM

c1cc(-c2sc(-c3ccncc3)c(-c3ccncc3)c2-c2ccncc2)ccn1
TGI (OVCAR-8 ovarian): > 100 µM | TGI (HOP-92 NSCLC): 29.6 µM | TGI (RPMI-8226 leukemia): > 100 µM | TGI (T-47D breast): > 100 µM | TGI (A549 NSCLC): 45.8 µM | TGI (MALME-3M melanoma): 32.5 µM | TGI (OVCAR-5 ovarian): 47.2 µM | TGI (HCT-15 colon): 56.7 µM | TGI (IGROV1 ovarian): > 100 µM | TGI (LOX IMVI melanoma): 30.8 µM | TGI (SF-295 CNS): 41.6 µM | TGI (MDA-MB-231 breast): 31.2 µM | TGI (OVCAR-4 ovarian): > 100 µM | TGI (SW-620 colon): 59.5 µM | TGI (MDA-N): 29 µM | TGI (RXF 393 renal): 33.4 µM | TGI (HS 578T breast): 73.5 µM | TGI (SF-539 CNS): 35 µM | TGI (HOP-62 NSCLC): 78.1 µM | TGI (UACC-62 melanoma): 27.8 µM | TGI (COLO 205 colon): 27.4 µM | TGI (NCI-H23 lung): 31.9 µM | TGI (SNB-19 CNS): 55.9 µM | TGI (NCI-H226 lung): 30.4 µM | TGI (M14 melanoma): 31.2 µM | TGI (UO-31 renal): 30 µM | TGI (PC-3 prostate): 57.4 µM | TGI (CAKI-1 renal): > 100 µM | TGI (BT-549 breast): 42 µM | TGI (SNB-75 CNS): 40.9 µM | TGI (HCT-116 colon): 28.5 µM | TGI (SK-MEL-28 melanoma): 46.1 µM | TGI (SK-OV-3 ovarian): 54 µM | TGI (NCI-H460 lung): 23.8 µM | TGI (MOLT-4 leukemia): > 100 µM | TGI (U251 CNS): 27.8 µM | TGI (KM12 colon): 65.5 µM | TGI (HCC-2998 colon): 19.6 µM | TGI (SR leukemia): > 100 µM | TGI (K-562 leukemia): > 100 µM | TGI (SN12C renal): 46.5 µM | TGI (786-0 renal): 33 µM | TGI (UACC-257 melanoma): 31.8 µM | TGI (DU-145 prostate): 76 µM | TGI (NCI-H522 lung): 35.9 µM | TGI (NCI/ADR-RES ovarian): 82 µM | TGI (TK-10 renal): 32.9 µM | TGI (MCF7 breast): 52 µM | TGI (EKVX NSCLC): 43.9 µM | TGI (HT29 colon): 27.7 µM | TGI (MDA-MB-435): 33.4 µM | TGI (A498 renal): 26.7 µM | TGI (SK-MEL-2 melanoma): 48.1 µM | TGI (SK-MEL-5 melanoma): 28.6 µM | TGI (OVCAR-3 ovarian): 44.4 µM | TGI (SF-268 CNS): 37.7 µM | TGI (ACHN renal): 42.9 µM
